Reference: article PMC6627698, “Redesigning Arenicin-1, an Antimicrobial Peptide from the Marine Polychaeta Arenicola marina, by Strand Rearrangement or Branching, Substitution of Specific Residues, and Backbone Linearization or Cyclization” (Marine Drugs, 2019)
Residues, ends and D or L forms follow the SMILES beside them. *: point of attachment. Cam = NC(=O)C*

Experiments:
[1] = test system: Staphylococcus intermidius; assay type: cell-based, Staphylococcus intermedius; settings: 18 h
Source text: (§1) E. coli ML35p, Listeria monocytogenes EGD, methicillin-resistant Staphylococcus aureus (MRSA) ATCC 33591 were kindly provided by Prof. Robert Lehrer (University of California, Los Angeles, CA, USA); E. coli ATCC 25922, E. coli M15, Pseudomonas aeruginosa ATCC 27853, S. aureus ATCC 25923 were provided by Dr. Elena Ermolenko (Institute of Experimental Medicine, St-Petersburg, Russia); drug-resistant clinical isolates were provided by Prof. Gennadiy Afinogenov (Saint Petersburg State University, Russia); S. aureus 710A has been described previously. The following clinical isolates of bacteria were used: P.s aeruginosa resistant to aztreonam, ceftazidime, cefotaxime (obtained from the urine of a patient with cystitis), Acinetobacter baumannii resistant to meropenem (from an infected wound); Staphylococcus intermedius (from an infected wound caused by a dog bite) resistant to ciprofloxacin, cefuroxime, clindamycin, erythromycin, rifampin, gentamicin, benzylpenicillin, oxacillin.
(§2) This assay was applied to determine the MIC, according to the guidelines of the Clinical and Laboratory Standards Institute, using Mueller Hinton (MH) Broth. We prepared 2x stocks of peptides and serially diluted them in sterile PBS instead of Mueller Hinton Broth, so that the treatment of the bacteria with the peptides was carried out in a medium containing 50% of MH and 50% of PBS, as described. The overnight cultures of each strain were transferred to fresh MH media and further incubated to obtain a mid-logarithmic-growth-phase culture of bacteria. The absorbance of each bacterial suspension was measured at 620 nm, and bacteria were then diluted to approximately 2 × 10^5 CFU/mL. Then, 50 µL of the suspensions were mixed with 50 µL of the peptide dilutions in the wells of a microtiter plate (pre-treated for 1 h at 37 °C with 0.2% bovine serum albumin (BSA) in water, sterilized by filtration, to diminish the non-specific binding of the peptides to the plastic surfaces).

[2] = test system: human erythroleukemia K-562 cells; assay type: cell-based; settings: 24 h
Method: The standard MTT ((3-(4,5-Dimethylthiazol-2-yl)-2,5-diphenyltetrazolium bromide) test was used for the examination of the cytotoxic activity of AMPs towards human erithroleukemia cells K-562. The cells were purchased from Biolot (Saint Petersburg, Russia) and were grown in RPMI 1640 medium (Biolot, Saint Petersburg, Russia) supplemented with glutamine and 10% FCS. Before the experiment, the culturing medium was replaced with serum-free RPMI 1640. Serial dilutions of the peptides in RPMI were plated in sterile 96-well microplates, and the target cells were dispensed to the microplates (10^5 cells/well in RPMI 1640). The plates were incubated for 24 h at 37 °C under 5% CO2. Cell-free media and cells incubated without peptides served as controls. Four hours before the incubation ended, MTT in PBS (5 mg/mL) was added to each well. After the incubation was stopped by adding isopropanol/ 0.04 M HCl, the optical density was measured at 540 nm, subtracting the background absorbance at 690 nm. Toxicity was determined by nonlinear regression analysis of the corresponding dose–response curves using the Sigma Plot 11 program to calculate the IC50 values (the concentration of the test substance that reduced the OD540 capacity by 50%).

S. aureus c.i. = assay type: cell-based, Staphylococcus aureus; settings: 18 h
Source text: as §1, §2

MRSA ATCC 33591 = assay type: cell-based, Staphylococcus aureus; settings: ATCC 33591, 18 h
Source text: as §1, §2

S. aureus ATCC 25923 = assay type: cell-based, Staphylococcus aureus; settings: ATCC 25923, 18 h
Source text: as §1, §2

[3] = test system: Listeria monocytogenes EGD; assay type: cell-based; settings: 18 h
Source text: as §1, §2

Escherichia coli ML35p = assay type: cell-based; settings: broth microdilution, 50% Mueller Hinton broth / 50% PBS, 18 h at 37 °C, median of 3–5 experiments in triplicates
Source text: as §1, §2

[4] = test system: Pseudomonas aeruginosa ATCC 27853; assay type: cell-based; settings: ATCC 27853, 18 h
Source text: as §1, §2

[5] = test system: Staphylococcus aureus 710A; assay type: cell-based; settings: 18 h
Source text: as §1, §2

E. coli ATCC 25922 = assay type: cell-based, Escherichia coli; settings: ATCC 25922, 18 h
Source text: as §1, §2

E. coli M15 = assay type: cell-based, Escherichia coli; settings: M15, 18 h
Source text: as §1, §2

[6] = test system: set of Gram-negative and Gram-positive bacteria, including drug-resistant clinical isolates; assay type: cell-based; settings: 12 strains; median MICs used; MIC > 16 µM taken as 32 µM
Method: To obtain a global assessment of the effect on antimicrobial activity, the geometric mean of the MIC (G-MIC) was calculated, and from this, the overall improvement or impoverishment with respect to arenicin-1. In general, inverting the symmetry or decreasing the charge had detrimental effects.
The overall activity against a set of tested bacterial strains was determined by way of the commonly used geometric mean of measured MIC values. […] At the same time, the geometric mean can still discriminate antimicrobial agents showing minor variations in activity; in other words, it has a better “resolution” than the median MIC (MIC50). Some mathematical basics for choosing the geometric mean for antimicrobial activity comparison are further discussed in the Supplementary Chapter S3.

P. aeruginosa c.i. = assay type: cell-based, Pseudomonas aeruginosa; settings: 18 h
Source text: as §1, §2

[7] = test system: Acinetobacter baumanii c.i.; assay type: cell-based, Acinetobacter baumannii; settings: 18 h
Source text: as §1, §2

Compound	Minimal Inhibitory Concentrations (MIC) [1] [µM]	IC50 [2] [µM]	Minimal Inhibitory Concentrations (MIC) (S. aureus c.i.) [µM]	Minimal Inhibitory Concentrations (MIC) (MRSA ATCC 33591) [µM]	Minimal Inhibitory Concentrations (MIC) (S. aureus ATCC 25923) [µM]	Minimal Inhibitory Concentrations (MIC) [3] [µM]	Minimal Inhibitory Concentrations (MIC) (Escherichia coli ML35p) [µM]	Minimal Inhibitory Concentrations (MIC) [4] [µM]	Minimal Inhibitory Concentrations (MIC) [5] [µM]	Minimal Inhibitory Concentrations (MIC) (E. coli ATCC 25922) [µM]	Minimal Inhibitory Concentrations (MIC) (E. coli M15) [µM]	G-MIC (geometric mean of all determined MICs) [6] [µM]	Minimal Inhibitory Concentrations (MIC) (P. aeruginosa c.i.) [µM]	Minimal Inhibitory Concentrations (MIC) [7] [µM]
CC(C)C[C@@H]1NC(=O)[C@H](C(C)C)NC(=O)CNC(=O)[C@H](CCCNC(=N)N)NC(=O)[C@H](C(C)C)NC(=O)[C@H](CCCNC(=N)N)NC(=O)[C@H](C(C)C)NC(=O)[C@H](CCCNC(=N)N)NC(=O)[C@H](Cc2ccc(O)cc2)NC(=O)[C@H](CCCNC(=N)N)NC(=O)[C@H](CCCNC(=N)N)NC(=O)[C@@H](NC(=O)[C@H](Cc2c[nH]c3ccccc23)NC(=O)[C@@H](N)CCCNC(=N)N)CSSC[C@@H](C(=O)N[C@@H](Cc2c[nH]c3ccccc23)C(=O)O)NC(=O)[C@H](C(C)C)NC(=O)[C@H](Cc2ccc(O)cc2)NC(=O)[C@H](C)NC(=O)[C@H](Cc2ccc(O)cc2)NC(=O)[C@H](C(C)C)NC1=O [ARin-s] (HELM PEPTIDE1{R.W.C.R.R.Y.R.V.R.V.R.G.V.L.V.Y.A.Y.V.C.W}$PEPTIDE1,PEPTIDE1,3:R3-20:R3$$$V2.0; N-terminus assumed)	>16	37.7	>16	>16	16	2	4 to 8	4 to 8	16	8	8	≥12.8	>16	16
CC(C)C[C@@H]1NC(=O)[C@H](C(C)C)NC(=O)CNC(=O)[C@H](CCCNC(=N)N)NC(=O)[C@H](C(C)C)NC(=O)[C@H](CC(C)C)NC(=O)[C@H](C(C)C)NC(=O)[C@H](CCCNC(=N)N)NC(=O)[C@H](Cc2ccc(O)cc2)NC(=O)[C@H](CCCNC(=N)N)NC(=O)[C@H](CCCNC(=N)N)NC(=O)[C@@H](NC(=O)[C@@H](N)Cc2c[nH]c3ccccc23)CSSC[C@@H](C(=O)N[C@@H](Cc2c[nH]c3ccccc23)C(=O)O)NC(=O)[C@H](CCCNC(=N)N)NC(=O)[C@H](CCCNC(=N)N)NC(=O)[C@H](Cc2ccc(O)cc2)NC(=O)[C@H](CCCNC(=N)N)NC(=O)[C@H](C(C)C)NC1=O [ARs-C] (HELM PEPTIDE1{W.C.R.R.Y.R.V.L.V.R.G.V.L.V.R.Y.R.R.C.W}$PEPTIDE1,PEPTIDE1,2:R3-19:R3$$$V2.0; N-terminus assumed)	8	11.6	16	4 to 8	4	1	1	1	2 to 4	2	2	3.2	16	2
CC(C)C[C@H](NC(=O)[C@@H](NC(=O)CNC(=O)[C@H](CCCNC(=N)N)NC(=O)[C@@H](NC(=O)[C@H](CCCNC(=N)N)NC(=O)[C@@H](NC(=O)[C@H](Cc1ccc(O)cc1)NC(=O)[C@H](C)NC(=O)[C@H](Cc1ccc(O)cc1)NC(=O)[C@@H](NC(=O)[C@H](CSCC(N)=O)NC(=O)[C@H](Cc1c[nH]c2ccccc12)NC(=O)[C@@H](N)CCCNC(=N)N)C(C)C)C(C)C)C(C)C)C(C)C)C(=O)N[C@H](C(=O)N[C@@H](CCCNC(=N)N)C(=O)N[C@@H](Cc1ccc(O)cc1)C(=O)N[C@@H](CCCNC(=N)N)C(=O)N[C@@H](CCCNC(=N)N)C(=O)N[C@@H](CSCC(N)=O)C(=O)N[C@@H](Cc1c[nH]c2ccccc12)C(=O)O)C(C)C [ARlin] (H-RWC(Cam)VYAYVRVRGVLVRYRRC(Cam)W-OH; N-terminus assumed)	8	> 40	8 to 16	4	2	2	1 to 2	2	2	2	2	3.1	4 to 8	4
CC(C)C[C@@H]1NC(=O)[C@H](C(C)C)NC(=O)[C@H](CCCNC(=N)N)NC(=O)[C@H](Cc2ccc(O)cc2)NC(=O)[C@H](CCCNC(=N)N)NC(=O)[C@H](CCCNC(=N)N)NC(=O)[C@@H](NC(=O)[C@@H](N)Cc2c[nH]c3ccccc23)CSSC[C@H](NC(=O)[C@@H](N)Cc2c[nH]c3ccccc23)C(=O)N[C@@H](CCCNC(=N)N)C(=O)N[C@@H](CCCNC(=N)N)C(=O)N[C@@H](Cc2ccc(O)cc2)C(=O)N[C@@H](CCCNC(=N)N)C(=O)N[C@@H](C(C)C)C(=O)N[C@@H](CC(C)C)C(=O)N[C@@H](C(C)C)C(=O)N[C@H](C(=O)N[C@@H](CN)C(N)=O)CCCNC(=O)[C@H](C(C)C)NC1=O [ARs-C-B] (HELM PEPTIDE1{W.C.R.R.Y.R.V.L.V.[Orn].[NC[C@H](N[*:1])C(=O)[*:2]].[am]}|PEPTIDE2{W.C.R.R.Y.R.V.L.V}$PEPTIDE1,PEPTIDE2,2:R3-2:R3|PEPTIDE1,PEPTIDE2,10:R3-9:R2$$$V2.0; N-terminus assumed)	4	39	4 to 8	8	4	2	1 to 2	1	4	4	8	4.4	16	8 to 16
